Columns and labels:
[1] = tested on: carcinosarcome de Walker, sarcome S-45 ou sarcome M-1; format: in vivo, rats; settings: for régression complète de la tumeur / durée de vie, augmentation par rapport au groupe témoin (sans antibiotiques): ordinary solution i.v., no carrier: daunorubicyne 2 mg/kg/jour for 5 days, carminomicyne 3 x 0,4 mg/kg at 120 h intervals; for durée de vie, augmentation par rapport au groupe témoin (sans antibiotiques): mean; for examens histologiques de divers tissus, surtout du tissu hépatique / hémopoïèse: rat, in vivo, iv
From the text: Dans les essais effectués, le support selon l'invention était porteur d'une préparation anticancéreuse : daunorubicyne, doxorubicyne ou carminomicyne; teneur en fer : 56 à 64 % en masse, le reste étant du carbone; teneur en antibiotique daunorubicyne, doxorubicyne ou carminomycine adsorbé : 2 à 2,5 % en masse.
L'action anticancéreuse a été établie chez des rats et comparée à celle des microsphères connues portant lesdits antibiotiques (taille moyenne des microsphères: 0,2 à 0,5 »m; enveloppe en albumine dénaturée), ainsi qu'à celle de ces médicaments anticancéreux sans support à commande magnétique. Les sujets expérimentaux étaient des rats d'une masse allant de 180 à 220 g. On a réinoculé aux rats (au milieu de la queue) une des […] couches des tumeurs réinoculables des rats; carcinosarcome de Walker, sarcome S-45 ou sarcome M-1 (40 rats pour chaque souche). Le traitement des animaux a commencé lorsque le volume de la teneur avait 1000 mm³.
Le support selon l'invention contenant de la daunorubicyne ou de la carminomicyne a été injecté en une seule fois lentement dans la veine caudale des rats, dose de 40 mg (0,8 mg en calculant en antibiotique, soit 4 mg/kg), sous forme d'une suspension en 1 ml de solution de gélatinol à 8 % pour injections. Dans le cas de la doxorubicyne la dose a été de 12 mg/kg (dose de support : 96 mg en calculant en antibiotique. Avant l'injection, un aimant permanent de samarium-cobalt (6000 Oe) a été fixé sur la queue au niveau de la tumeur. La localisation du support à antibiotique selon l'invention dans le vaisseau au niveau de la tumeur a été contrôlée à l'aide de radiogrammes.
Les microsphères albumineuses ont été injectées en une seule fois, comme décrit ci-dessus, dans une dose de 4 mg/kg (en calculant en daunorubicyne ou en carminomicyne). Les antibiotiques (sans support à commande magnétique) ont été injectés comme suit : la daunorubicyne a été injectée dans la veine caudale des rats avec une dose de 2 mg/kg/jour en solution de gélatinol à 8 % pour des injections pendant 5 jours (une injection par jour); carminomicyne : 0,4 mg/kg 3 fois avec des intervalles de 120 heures; doxorubicyne : en une seule fois avec une dose de 12 mg/kg. Dans le groupe témoin des animaux atteints de tumeur on a injecté dans la veine, 1 ml de solution de gélatinol à 8 % pour injections.

[2] = tested on: oedème provoqué par le dextrane; experiment: Anti-oedema activity, dextran-induced tail oedema (plethysmometer); format: in vivo, rats; settings: ordinary solution i.v. 20 mg/kg; 1 hour after injection
From the text: On a essayé l'activité anti-oedémique du support, selon l'invention, contenant une préparation antihistaminique (la diphénylhydramine). Le support selon l'invention se composait de 56 à 63 % en masse de fer et de carbone pour le reste; la teneur en diphénylhydramine adsorbée était de 3 % en masse.
Des essais comparatifs de l'activitié anti-oedémique ont été effectués en la comparant à celle de la diphénylhydramine injectée sous forme de solution ordinaire.
Les sujets des essais étaient 30 rats mâles de la population Vistar d'un poids allant de 180 à 220 g. Pour obtenir un oedème expérimental, on a injecté par voie subplantaire au milieu de la queue de 10 rats, 0,1 ml de solution aqueuse de dextrane à 4 %. Un aimant permanent de samarium-cobalt (6000 Oe) a été fixé à cet endroit et on a injecté aussitôt lentement dans la veine caudale 20 mg de support, selon l'invention, contenant 0,6 mg de diphénylhydramine en 0,7 ml de solution de gélatinol à 8 % pour injections (dose moyenne en calculant en diphénylhydramine : 3 mg/kg). La localisation de la dispersion dans le canal vasculaire a été contrôlée par radiographie. Chez 10 rats on a injecté de la même façon la solution de dextrane et on a injecté aussitôt dans la veine caudale la solution de diphénylhydramine (dose : 20 mg/kg, soit en moyenne 5 mg par rat) en 0,7 ml de solution de gélatinol à 8 % pour injections. […]

For `CC(=O)[C@]1(O)Cc2c(O)c3c(c(O)c2[C@@H](O[C@H]2C[C@H](N)[C@H](O)[C@H](C)O2)C1)C(=O)c1c(O)cccc1C3=O` [carminomicyne], the “régression complète de la tumeur” value [1] was “en aucun cas”, the “durée de vie, augmentation par rapport au groupe témoin (sans antibiotiques)” value [1] was 15-30% and the “examens histologiques de divers tissus, surtout du tissu hépatique” value [1] was “altérations cytotoxiques graves”. The hémopoïèse [1] was “oppression de l'hémopoïèse”.

`COc1cccc2c1C(=O)c1c(O)c3c(c(O)c1C2=O)C[C@@](O)(C(C)=O)C[C@@H]3O[C@H]1C[C@H](N)[C@H](O)[C@H](C)O1` [daunorubicyne] was tested, and the “régression complète de la tumeur” value [1] was “en aucun cas”, the “durée de vie, augmentation par rapport au groupe témoin (sans antibiotiques)” value [1] was 15-30% and the “examens histologiques de divers tissus, surtout du tissu hépatique” value [1] was “altérations cytotoxiques graves”. The hémopoïèse [1] was “oppression de l'hémopoïèse”.

With `CN(C)CCOC(c1ccccc1)c1ccccc1` [diphénylhydramine] the “augmentation du volume de la queue” value [2] was 1025±41 mm³ and the “augmentation du volume de la queue plus faible que dans le groupe témoin” value [2] was 33±2%.
